# Laboratory results published in ChEMBL document CHEMBL6178021, “Optimization of Tambjamines Active against Multiple Stages of Malaria Parasites” (J Med Chem, 2025).
# Columns and labels:
# [1] = in vitro; conditions: human, liver microsomes
# [2] = (§1) Apparent permeability across basolateral to apical side in MDCK transfected with human MDR1 cells incubated for 1 hr by LC-MS analysis; conditions: dog, mdck, 1 h
# [3] = test system: Plasmodium falciparum; assay: microbe, parasite or virus in culture; conditions: Dd2, 72 h
# Description: Antiplasmodial activity against asexual blood-stage Plasmodium falciparum Dd2 using 2% haematocrit and 0.2% parasitemia assessed as reduction in fluorescence measured after 72 hrs by Malaria SYBR Green I-based Fluorescence (MSF) assay
# [4] = test system: HepG2; assay: (§2) Cytotoxicity against human HepG2 cells assessed as cell viability measured after 48 hrs by MTT assay; type: toxicity, cell-based; conditions: hepg2
# [5] = Metabolic stability in human liver microsomes assessed as half life measured up to 60 mins by LC/MS analysis; type: ADME, Microsome
# [6] = test system: Plasmodium yoelii; assay: Antimalarial activity against erythrocytic Plasmodium yoelii MRA-428 infected in CF1 mouse assessed as reduction in parasitemia at 10 mg/kg, po once daily for 4 days measured on day 5; type: functional; design: scale not given: the % may be the effect or the level left; conditions: time 4 day
# [7] = test system: Plasmodium falciparum; assay: Antiplasmodial activity against asexual blood-stage Plasmodium falciparum Tm90-C2B using 2% haematocrit and 0.2% parasitemia assessed as reduction in fluorescence measured after 72 hrs by Malaria SYBR Green I-based Fluorescence (MSF) assay; type: functional, organism-based
# [8] = Solubility of the compound in potassium phosphate buffer at pH 7.4 by UV-vis spectroscopy
# [9] = test system: Plasmodium falciparum; assay: microbe, parasite or virus in culture; conditions: D6, 72 h
# Description: Antiplasmodial activity against asexual blood-stage Plasmodium falciparum D6 using 2% haematocrit and 0.2% parasitemia assessed as reduction in fluorescence measured after 72 hrs by Malaria SYBR Green I-based Fluorescence (MSF) assay
# [10] = test system: Plasmodium yoelii; assay: Antimalarial activity against erythrocytic Plasmodium yoelii MRA-428 infected in CF1 mouse assessed as reduction in parasitemia at 50 mg/kg, po once daily for 4 days measured on day 5; type: functional; design: scale not given: the % may be the effect or the level left; conditions: time 4 day
# [11] = test system: Plasmodium yoelii; assay: Antimalarial activity against erythrocytic Plasmodium yoelii MRA-428 infected in CF1 mouse assessed as cured mouse at 50 mg/kg, po once daily for 4 days measured on day 28 day; type: functional, organism-based; conditions: time 4.0 day
# [12] = test system: Plasmodium yoelii; assay: Antimalarial activity against erythrocytic Plasmodium yoelii MRA-428 infected in CF1 mouse assessed as reduction in parasitemia at 25 mg/kg, po once daily for 4 days measured on day 5; type: functional; design: scale not given: the % may be the effect or the level left; conditions: time 4 day
# [13] = test system: Plasmodium yoelii; assay: Antimalarial activity against erythrocytic Plasmodium yoelii MRA-428 infected in CF1 mouse assessed as cured mouse at 25 mg/kg, po once daily for 4 days measured on day 28 day; type: functional, organism-based; conditions: time 4.0 day
# [14] = Metabolic stability in mouse liver microsomes assessed as half life measured up to 60 mins by LC/MS analysis; type: ADME, Microsome
# [15] = in vitro; conditions: mouse, liver microsomes
# [16] = (§3) Apparent permeability across apical to basolateral side in MDCK transfected with human MDR1 cells incubated for 1 hr by LC-MS analysis; conditions: dog, mdck, 1 h
# [17] = test system: Plasmodium yoelii; assay: Antimalarial activity against erythrocytic Plasmodium yoelii MRA-428 infected in CF1 mouse assessed as reduction in parasitemia at 80 mg/kg, po once daily for 4 days measured on day 5; type: functional; design: scale not given: the % may be the effect or the level left; conditions: time 4 day
# [18] = test system: MDR1 (human); assay: as §1; conditions: dog, MDCK-MDR1
# [19] = in vitro; conditions: human
# Description: Selectivity index, ratio of IC50 for cytotoxicity against human HepG2 cells to IC50 for antiplasmodial activity against asexual blood-stage Plasmodium falciparum D6
# [20] = test system: MDR1 (human); assay: Efflux ratio, ratio of apparent permeability across apical to basolateral side over basolateral to apical side in MDCK transfected with human MDR1 cells incubated for 1 hr by LC-MS analysis; conditions: dog
# [21] = test system: Plasmodium yoelii; assay: Antimalarial activity against erythrocytic Plasmodium yoelii MRA-428 infected in CF1 mouse assessed as cured mouse at 80 mg/kg, po once daily for 4 days measured on day 28 day; type: functional, organism-based; conditions: time 4.0 day
# [22] = test system: MDR1 (human); assay: as §3; conditions: dog, MDCK-MDR1
# [23] = as §2; type: toxicity, cell-based; conditions: human, HepG2 cells
# [24] = test system: Plasmodium yoelii; assay: Antimalarial activity against erythrocytic Plasmodium yoelii MRA-428 infected in CF1 mouse assessed as cured mouse at 10 mg/kg, po once daily for 4 days measured on day 28 day; type: functional, organism-based; conditions: time 4.0 day
# [25] = test system: Plasmodium berghei; assay: Anti-malarial activity against Luciferase-expressing Plasmodium berghei sporozoites inoculated in po dosed Albino C57BL/6 mouse malaria model assessed as elimination of parasites in blood by measuring bioluminescence signal measured after 72 hrs; type: functional, organism-based
# [26] = test system: Plasmodium berghei; assay: Anti-malarial activity against Luciferase-expressing Plasmodium berghei sporozoites inoculated in po dosed Albino C57BL/6 mouse malaria model assessed as elimination of parasites in liver by measuring bioluminescence signal measured after 48 hrs; type: functional, organism-based
efflux ratio at 1 h [20],Papp A→B at 1 h [22] [×10⁻⁶ cm/s],SMILES,microsomal CLint at 1 h [1] [µL/min/mg],Papp [2],IC50 [3] [nM],IC50 [4] [nM],half-life [5] [h],Activity [6] [%],IC50 [7] [nM],solubility ([8]; buffer) [µM],IC50 [9] [nM],Activity [10] [%],Activity [11],Activity [12] [%],Activity [13],half-life [14] [h],microsomal CLint at 1 h [15] [µL/min/mg],Papp [16],selectivity ratio [19],further results
–,–,CCC1=C(CC)/C(=C/NC2CCCCCCC2)N=C1c1ccc(CC)[nH]1,7,0.28 ×10⁻⁶ cm/s,7.21,2720,> 1,63.1,7.8,< 3.125,15.9,100,Not active; None Of The Mouse Cured Out Of Four Tested,100,Not active; None Of The Mouse Cured Out Of Four Tested,> 1,14.6,–,–,–
–,–,COc1ccc(Cc2ccc(C3=N/C(=C\NC4CCCCCC4)C4=C3CCCC4)[nH]2)cc1,3.18,–,5.56,1340,> 1,0,2.8,11.4,6.1,–,–,0,–,> 1,2.07,0.7 ×10⁻⁶ cm/s,–,–
8.7,0.015,CCC1=C(CC)/C(=C/N[C@H]2CC[C@H](C)CC2)N=C1c1ccc[nH]1,59.5,–,89.3,–,–,88.8,97.1,205,67.9,100,Active; Two Mouse Cured Out Of Four,100,Active; Two Mouse Cured Out Of Four,–,37,–,235,Activity [17]: 100%; Papp B→A at 1 h [18]: 0.13 ×10⁻⁶ cm/s; Activity [21]: Not active; None Of The Mouse Cured Out Of Four Tested
0.23,0.002,CCC1=C(CC)/C(=C/NC23C[C@H]4C[C@@H](C2)C[C@@H](C3)C4)N=C1c1ccc(Br)[nH]1,14.4,0.39 ×10⁻⁶ cm/s,24.6,4020,> 1,33.1,15.6,25.8,18.1,–,–,67.1,–,> 1,7.36,–,222,–
–,–,CCC1=C(CC)/C(=C/NC2CCCCC2)N=C1c1ccc(Cc2ccc(OC)cc2)[nH]1,3.37,0.43 ×10⁻⁶ cm/s,7.25,7810,> 1,0,11.6,14.4,9.26,–,–,0,–,> 1,1.94,0.15 ×10⁻⁶ cm/s,–,–
0.37,0.002,CCC1=C(CC)/C(=C/NC23C[C@H]4C[C@@H](C2)C[C@@H](C3)C4)N=C1c1cc2cc(Cl)ccc2[nH]1,8.8,0.85 ×10⁻⁶ cm/s,133,5020,> 1,–,175,18.3,106,–,–,–,–,> 1,4.72,–,47,–
0.14,–,CCC1=C(CC)/C(=C/NC23CC4CC(CC(C4)C2)C3)N=C1c1cc2ccccc2[nH]1,4.02,–,59.3,–,> 1,–,410,–,70.2,–,–,–,–,0.818,28.3,0.58 ×10⁻⁶ cm/s,99.8,IC50 at 48 h [23]: 7010 nM; solubility ([8]; potassium phosphate buffer): 11.5 µM
–,–,[2H]C([2H])(C)c1ccc(C2=N/C(=C\NC3CCCCCC3)C(C)=C2C)[nH]1,14,0.007 10^-6 cm/s,5.91,6550,> 1,78.5,10.1,42,5.08,–,–,96.5,–,> 1,16,0.29 10^-6 cm/s,–,–
0.24,0.027,CCC1=C(CC)/C(=C/NC23C[C@H]4C[C@@H](C2)C[C@@H](C3)C4)N=C1c1ccc(C)[nH]1,39.7,–,0.823,2450,0.582,100,1.01,10.9,0.934,100,Active; Two Mouse Cured Out Of Four,100,Not active; None Of The Mouse Cured Out Of Four Tested,> 1,13.8,–,2620,Papp B→A at 1 h [18]: 0.006 ×10⁻⁶ cm/s; Activity [24]: Not active; None Of The Mouse Cured Out Of Four Tested
–,–,CCC1=C(CC)/C(=C/NC2CCCCCC2)N=C1c1ccc(Cc2ccc(OC)cc2)[nH]1,2.23,–,8.42,4340,> 1,0,16.3,20.5,9.93,–,–,0,–,> 1,2.27,0.18 ×10⁻⁶ cm/s,–,–
–,–,CCc1ccc(C2=N/C(=C\NC3CCCCCC3)C3=C2CCCC3)[nH]1,8.31,–,1.36,1060,> 1,22.7,1.74,15.4,4.8,100,Not active; None Of The Mouse Cured Out Of Four Tested,100,Not active; None Of The Mouse Cured Out Of Four Tested,> 1,10.3,0.24 ×10⁻⁶ cm/s,–,Papp B→A at 1 h [18]: 0.003 ×10⁻⁶ cm/s
–,–,CCC1=C(CC)/C(=C/NC23CC4CC(CC(C4)C2)C3)N=C1c1ccc[nH]1,–,–,1.01,–,> 1,82.5,–,–,1.6,100,Active; Three Mouse Cured Out Of Four,100,Active; Three Mouse Cured Out Of Four,0.267,–,–,2440,Activity [17]: 100%; Activity [25]: Dose-dependent-effect; IC50 at 48 h [23]: 3900 nM; Activity [21]: Active; Four Mouse Cured Out Of Four; Activity [26]: Dose-dependent-effect
–,–,COc1ccc(Cc2ccc(C3=N/C(=C\NC4CCCCCC4)C4=C3OCCO4)[nH]2)cc1,16.1,0.57 ×10⁻⁶ cm/s,21.3,1480,> 1,1.5,15.1,5.52,11.9,–,–,–,–,> 1,20.6,–,–,–

SMILES,efflux ratio at 1 h [20],Papp A→B at 1 h [22] [×10⁻⁶ cm/s],microsomal CLint at 1 h [1] [µL/min/mg],Papp [2],IC50 [3] [nM],IC50 [4] [nM],half-life [5] [h],Activity [6] [%],IC50 [7] [nM],solubility ([8]; buffer) [µM],IC50 [9] [nM],Activity [10] [%],Activity [11],Activity [12] [%],Activity [13],half-life [14] [h],microsomal CLint at 1 h [15] [µL/min/mg],Papp [16],selectivity ratio [19],further results
CCC1=C(CC)/C(=C/NC2CCCCCC2)N=C1c1ccc(C)[nH]1,–,0.007,18.3,0.45 ×10⁻⁶ cm/s,3.83,4220,> 1,92.2,9.02,35.9,4.47,100,Not active; None Of The Mouse Cured Out Of Four Tested,100,Not active; None Of The Mouse Cured Out Of Four Tested,> 1,16.6,–,–,–
CCC1=C(CC)/C(=C/NC2CCCCC2)N=C1c1ccc(Br)[nH]1,0.038,0.004,–,0.15 ×10⁻⁶ cm/s,336,–,> 1,–,172,4.46,–,–,–,–,–,> 1,16,–,–,–
